Reference: patent US11026999B2, “Insulin glargine/lixisenatide fixed ratio formulation” (SANOFI-AVENTIS DEUTSCHLAND GMBH, priority 2013, dated 2021)

Columns and labels:
type 2 diabetic patients [1] = test: Fasting plasma glucose (Example 1); assay type: in vivo, human; details: mITT population; for Fasting plasma glucose change from baseline to Week 24 (LOCF), LS Mean (SE): ANCOVA
Excerpt: (§1) Criteria for Evaluation: • Efficacy: • Primary Endpoint: • Change in HbA1c from baseline to Week 24 • Secondary Endpoints: • Change in 2-hour PPG during meal test from baseline to Week 24 • Change in 2-hour plasma glucose excursion during meal test from baseline to Week 24 • Percentage of patients reaching HbA1c ≤6.5% or <7% at Week 24 • Change in 7-point SMPG profiles from baseline to Week 24 (each time point and mean daily value) • Change in body weight from baseline to Week 24, • Average daily Insulin glargine dose at Week 24 • Change in FPG from baseline to Week 24 • Percentage of patients requiring rescue therapy during the 24-week open-label treatment period • Change in 30-minute and 1-hour PPG and plasma glucose excursion during meal test from baseline to week 24 • Percentage of patients reaching HbA1c <7% at week 24 with no documented symptomatic hypoglycemia during the 24-week open label treatment period • Percentage of patients reaching HbA1c <7% with no weight gain at week 24
(§2) All continuous secondary efficacy endpoints were analyzed using a similar ANCOVA model with treatment, randomization strata of screening HbA1c (<8%, ≥8%), randomization strata of screening BMI (<30 kg/m^2, ≥30 kg/m^2) and country as fixed effects and using the baseline value of the corresponding parameter as a covariate. Insulin glargine dose was not included in the ANCOVA model as a covariate since patients enrolled were insulin-naïve.

type 2 diabetic patients [2] = test: Premature treatment discontinuation, patient disposition (Example 1); details: human, in vivo
Excerpt: During the 24-week study treatment period, 11 (6.8%) combination-treated patients prematurely discontinued the IMP, compared with 3 (1.9%) insulin glargine-treated patients. For combination-treated patients, the most common reasons for treatment discontinuation was “adverse event” (6 patients [3.7%] versus 0 patient in the insulin glargine group) followed by “other reasons” (4 patients [2.5%] versus 2 patients [1.2%] in the insulin glargine group).

type 2 diabetic patients [3] = test: HbA1c, 24-week phase 2 study on top of metformin (Example 1); assay type: in vivo, human; details: mITT population; for HbA1c change from baseline to Week 24 (LOCF), LS Mean (SE): ANCOVA
Procedure: A randomized, 24-week, open-label, 2-arm parallel-group, multicenter study comparing the efficacy and safety of insulin glargine/lixisenatide fixed ratio combination versus insulin glargine on top of metformin in type 2 diabetic patients.
Methodology: This was an open-label, 1:1 randomized, active-controlled, 2-arm, 24-week duration, parallel-group study comparing: • Insulin glargine/lixisenatide fixed ratio (2 U of insulin glargine for 1 μg of lixisenatide) combination • Insulin glargine alone
Diagnosis and criteria for inclusion: Patients with type 2 diabetes mellitus diagnosed for at least 1 year, treated with metformin at a stable dose of at least 1.5 g/day for at least 3 months prior to screening visit, and with HbA1c ≥7%, and ≤10% at screening.
In both groups, the initial daily dose of insulin glargine to be administered during the first week of treatment was 10 U. Afterwards, the dose was adjusted to achieve a target fasting SMPG in the range of 80 to 100 mg/dL (4.4 to 5.6 mmol/L). The dose was titrated weekly until the patient reached the target fasting SMPG. Thereafter, until the end of the study, the dose was adjusted as necessary to maintain a fasting SMPG between 80 and 100 mg/dL (4.4 and 5.6 mmol/1), inclusive. Doses could be reduced or modified at any time for hypoglycemia.
If a 60 U/30 μg dose was not sufficient to maintain FPG/HbA1c below predefined thresholds values, the dose was to be kept at 60 U and a rescue therapy was to be introduced.
as §1
The primary endpoint (change in HbA1c from baseline to week 24) was analyzed using an analysis of covariance (ANCOVA) model with treatment (insulin glargine/lixisenatide fixed ratio combination, insulin glargine alone), randomization strata of screening HbA1c (<8%, ≥8%), randomization strata of screening BMI (<30 kg/m^2, ≥30 kg/m^2) and country as fixed effects and using the baseline HbA1c value as a covariate.
The non-inferiority of insulin glargine/lixisenatide fixed ratio combination to insulin glargine alone was tested using a 1-sided statistical test with alpha level of 0.025 and a non-inferiority margin of 0.4% HbA1c. […] If non-inferiority is established, then a corresponding check of statistical superiority of insulin glargine/lixisenatide fixed ratio combination over insulin glargine alone would be performed for the primary endpoint.
All categorical secondary efficacy endpoints were analyzed by using Cochran-Mantel-Haenszel (CMH) method stratified by randomization strata of screening HbA1c (<8%, ≥8%) and BMI (<30 kg/m^2, ≥30 kg/m^2).

type 2 diabetic patients [4] = test: 7-point Self-Monitored Plasma Glucose (SMPG) profile (Example 1); assay type: in vivo, human; details: mITT population
Excerpt: In yet another aspect of the present invention, the composition as described herein can be used for improving average 7-point SMPG profile. […] Self-monitored plasma glucose (SMPG), as used herein, is in particular the “7-point Self Monitored Plasma Glucose”. “7-point Self Monitored Plasma Glucose” in particular refers to the measurement of plasma glucose seven times a day and calculation of the average plasma glucose concentration therefrom. The “7-point Self Monitored Plasma Glucose” value is in particular an average plasma glucose concentration including fasting and postprandial conditions. In particular, measurements of plasma glucose concentration are performed pre-breakfast, post-breakfast (e.g. 2-hour post-breakfast), pre-lunch, post-lunch (e.g. 2-hour post-lunch), pre-dinner, post-dinner (e.g. 2-hour post-dinner) and at bedtime (see also FIG. 3). The treatment by the combination of the present invention, as described herein, can improve the self-monitored plasma glucose.
as §1, §2

type 2 diabetic patients [5] = test: Symptomatic hypoglycemia (Example 1); assay type: in vivo, human; details: Safety population
Excerpt: Safety: Adverse events, serious adverse events, symptomatic hypoglycemia, vital signs, electrocardiogram (ECG), safety laboratory values.
Symptomatic hypoglycemia events were documented on a specific hypoglycemia event form, and not an AE CRF page, and thus were not included in the TEAE summaries.

Substance: Gly(A21)-Arg(B31)-Arg(B32)-human insulin [Insulin Glargine]
- Fasting plasma glucose at Week 24 (LOCF), Mean (SD) (type 2 diabetic patients [1]): 6.20 (1.35) mmol/L
- Fasting plasma glucose at Week 24 (LOCF), Median (type 2 diabetic patients [1]): 5.95 mmol/L
- Fasting plasma glucose change from baseline to Week 24 (LOCF), Mean (SD) (type 2 diabetic patients [1]): −3.28 (2.39) mmol/L
- Fasting plasma glucose change from baseline to Week 24 (LOCF), Median (type 2 diabetic patients [1]): -3.00 mmol/L
- Fasting plasma glucose change from baseline to Week 24 (LOCF), LS Mean (SE) (type 2 diabetic patients [1]): −3.51 (0.128) mmol/L
- Fasting plasma glucose change from baseline to Week 24 (LOCF), LS Mean (SE) (type 2 diabetic patients [1]; listed as insulin glargine): -3.51 mmol/L
- Patients who prematurely discontinued the IMP (type 2 diabetic patients [2]): 3 (1.9%) n (%)
- Treatment discontinuation, reason adverse event (type 2 diabetic patients [2]): 0 n (%)
- HbA1c at Week 24 (LOCF), Mean (SD) (type 2 diabetic patients [3]): 6.47 (0.64) %
- HbA1c at Week 24 (LOCF), Median (type 2 diabetic patients [3]): 6.40%
- HbA1c change from baseline to Week 24 (LOCF), Mean (SD) (type 2 diabetic patients [3]): −1.54 (0.87) %
- HbA1c change from baseline to Week 24 (LOCF), Median (type 2 diabetic patients [3]): −1.40%
- Number (%) of patients with HbA1c <7.0% at Week 24 (type 2 diabetic patients [3]): 126 (78.3%) n (%)
- Number (%) of patients with HbA1c ≤6.5% at Week 24 (type 2 diabetic patients [3]): 104 (64.6%) n (%)
- Percentage of patients reaching HbA1c <7% at Week 24 (type 2 diabetic patients [3]): 78.3%
- Percentage of patients reaching HbA1c ≤6.5% at Week 24 (type 2 diabetic patients [3]): 64.6%
- HbA1c change from baseline to Week 24 (LOCF), LS Mean (SE) (type 2 diabetic patients [3]): −1.64 (0.057) %
- HbA1c change from baseline to Week 24 (LOCF), LS Mean (SE) (type 2 diabetic patients [3]; listed as insulin glargine): −1.64%
- Average 7-point SMPG at Week 24 (LOCF), Mean (SD) (type 2 diabetic patients [4]): 7.01 (1.15) mmol/L
- Average 7-point SMPG at Week 24 (LOCF), Median (type 2 diabetic patients [4]): 6.94 mmol/L
- Average 7-point SMPG change from baseline to Week 24 (LOCF), Mean (SD) (type 2 diabetic patients [4]): −2.81 (2.18) mmol/L
- Average 7-point SMPG change from baseline to Week 24 (LOCF), Median (type 2 diabetic patients [4]): -2.31 mmol/L
- Average 7-point SMPG change from baseline to Week 24 (LOCF), LS Mean (SE) (type 2 diabetic patients [4]; ANCOVA): −2.93 (0.101) mmol/L
- Documented symptomatic hypoglycemia (plasma glucose <54 mg/dL [3.0 mmol/L]): Number of events (type 2 diabetic patients [5]): 10
- Documented symptomatic hypoglycemia (plasma glucose <54 mg/dL [3.0 mmol/L]): Number of events per 100 patient years (type 2 diabetic patients [5]): 13.2 events per 100 patient years
- Documented symptomatic hypoglycemia (plasma glucose <54 mg/dL [3.0 mmol/L]): Number of patients with events (type 2 diabetic patients [5]): 4 (2.5%) n (%)
- Documented symptomatic hypoglycemia (plasma glucose <60 mg/dL [3.3 mmol/L]): Number of events (type 2 diabetic patients [5]): 18
- Documented symptomatic hypoglycemia (plasma glucose <60 mg/dL [3.3 mmol/L]): Number of events per 100 patient years (type 2 diabetic patients [5]): 23.8 events per 100 patient years
- Documented symptomatic hypoglycemia (plasma glucose <60 mg/dL [3.3 mmol/L]): Number of patients with events (type 2 diabetic patients [5]): 9 (5.6%) n (%)
- Documented symptomatic hypoglycemia (plasma glucose <=70 mg/dL [3.9 mmol/L]): Number of events (type 2 diabetic patients [5]): 79
- Documented symptomatic hypoglycemia (plasma glucose <=70 mg/dL [3.9 mmol/L]): Number of events per 100 patient years (type 2 diabetic patients [5]): 104.5 events per 100 patient years
- Documented symptomatic hypoglycemia (plasma glucose <=70 mg/dL [3.9 mmol/L]): Number of patients with events (type 2 diabetic patients [5]): 37 (22.8%) n (%)
- Probable symptomatic hypoglycemia: Number of events (type 2 diabetic patients [5]): 5
- Probable symptomatic hypoglycemia: Number of events per 100 patient years (type 2 diabetic patients [5]): 6.6 events per 100 patient years
- Probable symptomatic hypoglycemia: Number of patients with events (type 2 diabetic patients [5]): 5 (3.1%) n (%)
- Severe symptomatic hypoglycemia: Number of events (type 2 diabetic patients [5]): 0
- Severe symptomatic hypoglycemia: Number of events per 100 patient years (type 2 diabetic patients [5]): 0.0 events per 100 patient years
- Severe symptomatic hypoglycemia: Number of patients with events (type 2 diabetic patients [5]): 0 n (%)
- Symptomatic hypoglycemia: Number of events per 100 patient years (type 2 diabetic patients [5]): 111.1 events per 100 patient years
- Symptomatic hypoglycemia: Number of events (type 2 diabetic patients [5]; TEAE period): 84
- Symptomatic hypoglycemia: Number of patients with events (type 2 diabetic patients [5]; documented, probable and severe, TEAE period): 40 (24.7%) n (%)
